Laboratory results: ChEMBL document CHEMBL5108065 (J Med Chem, 2022)
Active and inactive are the calls of the source. The rule behind the calls is not given here.

Legend:
[1] = Inhibition of Plasmodium falciparum PMV by FRET assay
Plasmodium falciparum [2] = test: Antimalarial activity against asexual blood stage Plasmodium falciparum 3D7 assessed as parasite growth inhibition by measuring parasitemia by LDH assay; type: functional, organism-based
Plasmodium falciparum [3] = test: Antimalarial activity against Plasmodium falciparum infected NSG mouse model at 50 mg/kg, po administered daily for 3 days; type: functional, organism-based; settings: time 3.0 day
[4] = AUClast in NSG mouse at 50 mg/kg, po by LC-MS/MS analysis; type: ADME, organism-based; set-up: time 0 - last, dose 50 mg/kg, route po; settings: in vivo
Plasmodium falciparum [5] = test: Antimalarial activity against blood stage Plasmodium infected in NSG mouse model assessed as parasite recrudescence by measuring parasitemia at 50 mg/kg, po measured 96 hrs by flow cytometry; type: functional, organism-based
Plasmodium berghei [6] = test: Antimalarial activity against Plasmodium berghei sporozoites infected in naive C57B/6 liver mouse model assessed as decrease in liver infection at 50 mg/kg, po administered once daily for 1 to 2 days by Giemsa staining based microscopic analysis; type: functional, organism-based; settings: time 1-2 day
Plasmodium berghei [7] = test: Antimalarial activity against Plasmodium berghei sporozoites infected in naive C57B/6 liver mouse model assessed as decrease in liver infection at 50 mg/kg, po administered twice daily for 1 to 2 days by Giemsa staining based microscopic analysis; type: functional, organism-based; settings: time 1-2 day
Plasmodium berghei [8] = test: Antimalarial activity against luciferase expressing Plasmodium berghei sporozoites infected in naive C57B/6 liver mouse model assessed as decrease in liver infection at 50 mg/kg, po administered twice daily on day 8 by Giemsa staining based microscopic analysis; type: functional, organism-based; settings: time 8.0 day
[9] = Lipophilicity, logD of compound at pH 7.4; type: physicochemical; settings: buffer
[10] = Drug metabolism in human hepatocytes assessed as (S)-6-(2-chloro-3-((6-cyclopropylpyridin-3-yl)amino)phenyl)-2-imino-6-methyl-3-((2S,4S)-2-methyltetrahydro-2H-pyran-4-yl)tetrahydropyrimidin-4(1H)-one metabolite formation; type: ADME, cell-based, Hepatocyte
[11] = Drug metabolism in Cynomolgus monkey hepatocytes assessed as (S)-6-(2-chloro-3-((6-cyclopropylpyridin-3-yl)amino)phenyl)-2-imino-6-methyltetrahydropyrimidin-4(1H)-one metabolite formation; type: ADME, cell-based, Macaca fascicularis, Hepatocyte
[12] = Drug metabolism in rat hepatocytes assessed as (S)-6-(2-chloro-3-((6-cyclopropylpyridin-3-yl)amino)phenyl)-2-imino-6-methyltetrahydropyrimidin-4(1H)-one metabolite formation; type: ADME, cell-based, Hepatocyte
[13] = biological target: Voltage-gated inwardly rectifying potassium channel KCNH2 (Homo sapiens, UniProt Q12809); test: Inhibition of hERG cardiac ion channel by patch clamp assay; type: toxicity
[14] = biological target: Voltage-dependent L-type calcium channel subunit alpha-1C (Homo sapiens, UniProt Q13936); test: Inhibition of Cav1.2 (unknown origin) cardiac ion channel by patch clamp assay; type: toxicity
Plasmodium falciparum [15] = test: Antiplasmodial activity against sensitive Plasmodium falciparum NF54 infected in human red blood cells assessed as reduction in [3H]-hypoxanthine incorporation pretreated for 48 hrs followed by [3H]-hypoxanthine addition measured after 24 hrs by scintillation counting method; type: functional, organism-based
Plasmodium falciparum [16] = test: Antimalarial activity against Plasmodium falciparum K1 harbouring Pf-crt, Pf-mdrl,Pf-dhfr, Pf-dhps mutated loci assessed as inhibition of parasite growth pretreated for 48 hrs followed by [3H]-hypoxanthine addition measured after 24 hrs by scintillation counting method; type: functional, organism-based
Plasmodium falciparum [17] = test: Antimalarial activity against Plasmodium falciparum TM90C2b harbouring Pf-crt, Pf-mdrl,Pfd-hfr, Pf-cytbQ0 mutated loci assessed as inhibition of parasite growth pretreated for 48 hrs followed by [3H]-hypoxanthine addition measured after 24 hrs by scintillation counting method; type: functional, organism-based
Plasmepsin IX = biological target: T1, Plasmepsin IX (Plasmodium falciparum, UniProt Q8ILG2); test: Inhibition of PMIX in Plasmodium falciparum 3D7 HA epitope
T1 sequence (Q8ILG2 whole entry): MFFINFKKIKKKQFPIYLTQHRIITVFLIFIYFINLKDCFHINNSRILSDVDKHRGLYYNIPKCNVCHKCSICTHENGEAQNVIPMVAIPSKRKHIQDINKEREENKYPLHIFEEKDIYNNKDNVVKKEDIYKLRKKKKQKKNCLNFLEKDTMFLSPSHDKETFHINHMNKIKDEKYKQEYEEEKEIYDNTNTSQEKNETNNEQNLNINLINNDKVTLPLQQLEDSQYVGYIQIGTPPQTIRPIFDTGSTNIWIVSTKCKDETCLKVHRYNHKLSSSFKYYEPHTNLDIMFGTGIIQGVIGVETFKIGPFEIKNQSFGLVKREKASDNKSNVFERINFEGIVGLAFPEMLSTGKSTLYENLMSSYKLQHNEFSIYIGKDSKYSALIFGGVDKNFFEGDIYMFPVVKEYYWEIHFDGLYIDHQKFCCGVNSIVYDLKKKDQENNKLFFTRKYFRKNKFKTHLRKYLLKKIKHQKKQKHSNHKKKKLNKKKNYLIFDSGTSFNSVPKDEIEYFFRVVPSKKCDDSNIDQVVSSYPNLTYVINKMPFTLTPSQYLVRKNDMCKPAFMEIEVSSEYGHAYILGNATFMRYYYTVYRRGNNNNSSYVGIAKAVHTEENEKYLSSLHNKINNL

Plasmodium falciparum [18] = test: Antimalarial activity against Plasmodium falciparum infected NSG mouse model assessed as accumulation of circulating mature schizonts measured after 2 cycles of drug exposure at 60 mg/kg, po bid administered daily for 3 days; type: functional, organism-based; settings: time 3.0 day
[19] = Intrinsic clearance in rat hepatocytes measured per 10^6 cells; type: ADME, cell-based, Hepatocyte
[20] = Clearance in Cynomolgus monkey blood at 1 mg/kg, iv measured at 2 to 72 hrs by LC-MS/MS analysis; type: ADME, organism-based, Macaca fascicularis; settings: whole blood, time 2-72 hrs
[21] = Cardiotoxicity in anesthetized guinea-pig assessed as decrease in heart rate; type: toxicity, Cavia porcellus; settings: 0.09 µM, DDE = dose-dependent effect, dose 90 nM
[22] = Cardiotoxicity in anesthetized guinea-pig assessed as cardiac contractility; type: toxicity, Cavia porcellus; settings: 0.09 µM, DDE = dose-dependent effect, dose 90 nM
[23] = Cardiotoxicity in anesthetized guinea-pig assessed as QRS widening at 1600 nM; type: toxicity, Cavia porcellus; settings: 1.6 µM
[24] = fCmax in Han Wistar rat at 1000 mg/kg, po administered every other day for 7 days; type: ADME, organism-based; settings: in vivo, 168 h, time 7 day
[25] = Toxicity in Han Wistar rat assessed as body weight gain at 250 to 1000 mg/kg, po administered every other day for 7 days; type: organism-based; settings: in vivo, 168 h, dose 250-1000 mg/kg, time 7 day
[26] = Toxicity in Han Wistar rat assessed as auto-fluorescent granule accumulation in retinal epithelium at 250 to 1000 mg/kg, po administered every other day for 7 days; type: organism-based; settings: in vivo, 168 h, dose 250-1000 mg/kg, time 7 day
[27] = Toxicity in Han Wistar rat assessed as structural changes in retina at 250 to 1000 mg/kg, po administered every other day for 7 days; type: organism-based; settings: in vivo, 168 h, dose 250-1000 mg/kg, time 7 day
[28] = Toxicity in Han Wistar rat assessed as effect on scotopic amplitude at 1000 mg/kg, po administered every other day for 7 days by ERG analysis; type: organism-based; settings: in vivo, 168 h, time 7 day
in vivo = settings: cynomolgus monkey, blood, po, 10 mg/kg
Plasmepsin X = Plasmepsin X (Plasmodium falciparum (isolate 3D7), UniProt Q8IAS0); test: biochemical
Description: Inhibition of Plasmodium falciparum recombinant C-terminal TEV cleavable 8his-tagged PMX by FRET assay

[29] = test system: Plasmepsin X (Plasmodium falciparum); test: Binding affinity to Plasmodium falciparum PMX assessed as dissociation constant by SPR analysis

Voltage-dependent L-type calcium channel subunit alpha-1C, sequence (Q13936 whole entry): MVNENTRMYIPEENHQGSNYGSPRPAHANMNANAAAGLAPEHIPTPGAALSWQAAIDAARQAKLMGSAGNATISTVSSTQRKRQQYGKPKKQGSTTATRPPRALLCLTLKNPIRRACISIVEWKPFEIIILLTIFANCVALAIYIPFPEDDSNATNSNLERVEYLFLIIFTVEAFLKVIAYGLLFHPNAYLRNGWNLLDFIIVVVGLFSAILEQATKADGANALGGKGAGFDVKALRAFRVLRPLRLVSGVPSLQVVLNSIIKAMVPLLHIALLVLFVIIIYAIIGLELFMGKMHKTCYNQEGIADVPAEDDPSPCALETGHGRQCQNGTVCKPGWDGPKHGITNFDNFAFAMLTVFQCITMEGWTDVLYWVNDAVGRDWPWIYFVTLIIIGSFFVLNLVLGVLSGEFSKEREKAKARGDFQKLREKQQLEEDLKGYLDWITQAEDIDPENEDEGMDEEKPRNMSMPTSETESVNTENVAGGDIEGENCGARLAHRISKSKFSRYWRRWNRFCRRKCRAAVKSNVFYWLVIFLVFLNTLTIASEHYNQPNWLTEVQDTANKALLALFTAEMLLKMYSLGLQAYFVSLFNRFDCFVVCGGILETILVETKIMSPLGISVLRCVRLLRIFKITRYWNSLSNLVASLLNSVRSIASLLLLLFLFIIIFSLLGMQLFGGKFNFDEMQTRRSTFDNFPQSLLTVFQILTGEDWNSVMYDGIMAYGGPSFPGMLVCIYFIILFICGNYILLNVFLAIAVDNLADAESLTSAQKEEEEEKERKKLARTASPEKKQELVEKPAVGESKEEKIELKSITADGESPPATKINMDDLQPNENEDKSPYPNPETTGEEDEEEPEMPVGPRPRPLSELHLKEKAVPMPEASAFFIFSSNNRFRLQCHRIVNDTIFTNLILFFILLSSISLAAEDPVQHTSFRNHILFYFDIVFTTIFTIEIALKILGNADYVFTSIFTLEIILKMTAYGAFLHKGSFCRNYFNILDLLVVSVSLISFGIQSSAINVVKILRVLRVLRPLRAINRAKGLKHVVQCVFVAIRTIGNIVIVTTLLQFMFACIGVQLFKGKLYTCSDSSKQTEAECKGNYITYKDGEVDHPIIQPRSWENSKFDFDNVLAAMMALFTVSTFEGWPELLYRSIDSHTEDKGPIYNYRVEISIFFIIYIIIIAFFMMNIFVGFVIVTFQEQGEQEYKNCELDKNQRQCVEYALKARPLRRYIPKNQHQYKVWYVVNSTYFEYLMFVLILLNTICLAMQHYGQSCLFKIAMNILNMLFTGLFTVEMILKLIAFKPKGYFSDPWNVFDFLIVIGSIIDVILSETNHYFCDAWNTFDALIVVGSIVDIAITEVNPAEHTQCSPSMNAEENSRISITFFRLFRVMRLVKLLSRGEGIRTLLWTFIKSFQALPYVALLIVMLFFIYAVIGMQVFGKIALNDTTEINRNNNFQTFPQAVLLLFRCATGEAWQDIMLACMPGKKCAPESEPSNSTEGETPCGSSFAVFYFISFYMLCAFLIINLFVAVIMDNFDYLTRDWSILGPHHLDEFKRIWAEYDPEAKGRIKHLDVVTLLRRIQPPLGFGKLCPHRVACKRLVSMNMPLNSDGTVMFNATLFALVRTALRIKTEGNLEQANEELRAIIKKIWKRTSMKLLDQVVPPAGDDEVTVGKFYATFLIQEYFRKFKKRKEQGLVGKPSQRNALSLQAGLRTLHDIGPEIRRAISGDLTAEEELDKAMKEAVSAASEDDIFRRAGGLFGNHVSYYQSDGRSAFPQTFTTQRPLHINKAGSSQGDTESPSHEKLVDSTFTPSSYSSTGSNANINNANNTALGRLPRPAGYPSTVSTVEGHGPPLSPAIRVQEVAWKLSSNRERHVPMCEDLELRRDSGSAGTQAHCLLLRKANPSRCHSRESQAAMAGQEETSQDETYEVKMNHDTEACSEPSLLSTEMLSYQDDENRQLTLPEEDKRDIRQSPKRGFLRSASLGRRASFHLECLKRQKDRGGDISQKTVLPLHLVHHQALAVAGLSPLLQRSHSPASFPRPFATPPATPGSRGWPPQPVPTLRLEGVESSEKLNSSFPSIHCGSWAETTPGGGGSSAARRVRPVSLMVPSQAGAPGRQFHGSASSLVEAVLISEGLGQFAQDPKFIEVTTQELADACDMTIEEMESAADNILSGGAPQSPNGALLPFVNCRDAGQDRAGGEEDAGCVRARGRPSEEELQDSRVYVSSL
Plasmepsin X, sequence (Q8IAS0 whole entry): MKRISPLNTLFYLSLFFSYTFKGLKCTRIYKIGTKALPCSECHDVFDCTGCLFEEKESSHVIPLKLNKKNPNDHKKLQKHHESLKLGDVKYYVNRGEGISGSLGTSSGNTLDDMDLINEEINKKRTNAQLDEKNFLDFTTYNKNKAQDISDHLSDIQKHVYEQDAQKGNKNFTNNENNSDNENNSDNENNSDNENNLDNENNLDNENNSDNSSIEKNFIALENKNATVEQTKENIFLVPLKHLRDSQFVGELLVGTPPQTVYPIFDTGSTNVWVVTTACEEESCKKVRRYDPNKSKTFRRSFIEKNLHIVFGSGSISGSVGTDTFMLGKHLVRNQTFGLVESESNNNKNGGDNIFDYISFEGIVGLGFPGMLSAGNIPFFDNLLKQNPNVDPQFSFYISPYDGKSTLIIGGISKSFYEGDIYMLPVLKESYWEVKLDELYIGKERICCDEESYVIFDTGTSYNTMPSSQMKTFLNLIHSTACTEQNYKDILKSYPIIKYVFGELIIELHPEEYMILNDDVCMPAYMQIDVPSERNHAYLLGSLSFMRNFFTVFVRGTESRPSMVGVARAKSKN
Voltage-gated inwardly rectifying potassium channel KCNH2, sequence (Q12809 whole entry): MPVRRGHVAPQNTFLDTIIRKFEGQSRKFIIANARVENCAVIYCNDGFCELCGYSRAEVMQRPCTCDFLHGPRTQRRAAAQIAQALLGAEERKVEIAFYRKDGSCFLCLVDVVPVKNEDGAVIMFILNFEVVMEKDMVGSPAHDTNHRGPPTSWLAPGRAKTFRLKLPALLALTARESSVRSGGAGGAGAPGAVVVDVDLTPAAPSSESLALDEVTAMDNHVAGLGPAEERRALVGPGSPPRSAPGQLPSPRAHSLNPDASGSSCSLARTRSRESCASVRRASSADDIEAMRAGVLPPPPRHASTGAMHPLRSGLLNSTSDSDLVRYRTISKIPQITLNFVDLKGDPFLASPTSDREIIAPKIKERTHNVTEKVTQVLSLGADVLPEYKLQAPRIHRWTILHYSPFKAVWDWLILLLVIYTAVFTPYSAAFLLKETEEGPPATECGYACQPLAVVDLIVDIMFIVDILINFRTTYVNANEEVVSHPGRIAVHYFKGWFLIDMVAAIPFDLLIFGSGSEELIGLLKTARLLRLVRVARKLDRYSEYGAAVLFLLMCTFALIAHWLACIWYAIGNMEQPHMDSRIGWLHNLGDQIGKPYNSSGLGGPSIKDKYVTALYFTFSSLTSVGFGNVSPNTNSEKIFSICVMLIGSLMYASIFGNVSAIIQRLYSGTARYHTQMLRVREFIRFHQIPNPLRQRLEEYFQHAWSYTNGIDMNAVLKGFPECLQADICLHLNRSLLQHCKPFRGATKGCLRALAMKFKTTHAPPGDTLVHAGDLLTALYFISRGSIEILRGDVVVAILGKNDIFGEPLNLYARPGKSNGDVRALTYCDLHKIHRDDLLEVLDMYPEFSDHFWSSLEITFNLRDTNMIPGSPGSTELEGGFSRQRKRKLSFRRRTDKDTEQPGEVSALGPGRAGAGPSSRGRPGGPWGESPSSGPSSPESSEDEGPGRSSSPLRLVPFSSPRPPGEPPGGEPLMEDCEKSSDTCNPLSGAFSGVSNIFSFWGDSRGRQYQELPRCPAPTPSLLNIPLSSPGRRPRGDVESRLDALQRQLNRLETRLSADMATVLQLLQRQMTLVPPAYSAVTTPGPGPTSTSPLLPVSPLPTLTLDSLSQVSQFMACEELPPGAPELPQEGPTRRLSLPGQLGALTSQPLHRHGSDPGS

C[C@H]1C[C@@H](N2C(=N)N[C@](C)(c3cccc(Nc4ccc(C5CC5)nc4)c3Cl)CC2=O)CCO1
IC50 [1]: > 10 µM | IC50 (Plasmodium falciparum [2]): 0.014 µM | Activity (Plasmodium falciparum [3]): Active | AUC [4]: 2 10^6nM | Activity (Plasmodium falciparum [5]): Active | Activity (Plasmodium berghei [6]): Active | Activity (Plasmodium berghei [7]): Active | Activity (Plasmodium berghei [8]): Active | logD [9]: 2.5 | Drug metabolism [10]: Metabolite_Detected | Drug metabolism [11]: Metabolite_Detected | Drug metabolism [12]: Metabolite_Detected | IC50 [13]: 14 µM | IC50 [14]: 27 µM

C[C@H]1C[C@@H](N2C(=N)N[C@](C)(c3cccc(NC(=O)c4cccc(C#N)c4)c3Cl)CC2=O)CCO1
IC50 (Plasmodium falciparum [15]): 0.0346 µM | IC50 (Plasmodium falciparum [16]): 0.033 µM | IC50 (Plasmodium falciparum [17]): 0.015 µM | IC50 (Plasmepsin IX): 0.142 µM | Activity (Plasmodium falciparum [18]): Active | CLH [19]: 66 µL/min | clearance [20]: 1.13 L/h/kg | Activity [21]: Dde | Activity [22]: Dde | Activity [23]: Non-Toxic | fCmax [24]: 11 µM | Activity [25]: Non-Toxic | Activity [26]: Non-Toxic | Activity [27]: Non-Toxic | Activity [28]: Non-Toxic | Tmax (in vivo): 1 h | IC50 (Plasmepsin X): 0.007 µM | Kd [29]: 0.0055 µM
